Laboratory results reported in US10745393B2, “Small molecular probes, processes and use thereof” (JAWAHARLAL NEHRU CENTRE FOR ADVANCED SCIENTIFIC RESEARCH, priority 2014, dated 2020).
“And” between values parts separate entries of the source, which are not always exact repeats. Identical values can stand only once. “Also recorded” adds a separate entry of the source. Marks after values point to notes of the source that are not given here.

Columns and labels:
(AT)10 = assay: Thermal denaturation (UV-melting) of dsDNA with probe TC; type: binding
[1] = molecular target: Aβ42 fibrillar aggregates (Homo sapiens, UniProt P05067); assay: pH-dependent colorimetric and fluorometric response; type: binding; settings: TC 10 μM, PBS buffer
(D1)mix [2] = assay: Thermal denaturation (UV-melting) of dsDNA with probe TC; type: binding
[3] = molecular target: T1, islet amyloid polypeptide (IAPP) aggregates (Homo sapiens, UniProt P10997); assay: Selectivity: fluorescence with IAPP aggregates; type: binding; settings: IAPP aggregates 20 μM
T1 construct: A 0.1 mg (Merck, calbiochem) sample of amylin is dissolved in 100 μL of acetonitrile; purchased Merck, calbiochem

(AT)20 [4] = assay: Thermal denaturation (UV-melting) of dsDNA with probe TC; type: binding
[5] = molecular target: ThT/Aβ42 aggregate complex (Homo sapiens, UniProt P05067); assay: ThT displacement / FRET assay; type: binding; settings: decay at 483 nm, enhancement at 654 nm
(AT)20 [6] = assay: Agarose gel electrophoresis staining of dsDNA band; type: binding; settings: 3% agarose gel, about 0.6 μg dsDNA, UV-illumination
[7] = Absorption, emission and quantum yield of probes in Tris-HCl buffer without DNA; type: physicochemical
Plasmodium falciparum = assay: Live cell fluorescence imaging of malaria parasites in erythrocytes; type: cell-based, P. falciparum 3D7 strain; settings: (FIG. 38 legend 1 and 2 μM), 30 minutes
Aβ42 aggregates [8] = molecular target: T2, Aβ42 aggregates (Homo sapiens, UniProt P05067); assay: Absorption / fluorescence response with Aβ42 fibrillar aggregates; type: binding
[9] = test system: ssDNA oligonucleotides (dA10, dT10, dG10 and dC10); assay: Fluorescence emission in presence of ssDNA oligonucleotides; type: binding; settings: probe 10 μM, Tris-HCl buffer
calf-thymus DNA (ct-DNA) = assay: Fluorescence response in presence of calf-thymus DNA; type: binding; settings: TC 10 μM, ct-DNA 200 μg/mL
Text: Furthermore, the fluorescence response of TC in presence of calf-thymus DNA (ct-DNA) is also studied.

HeLa S3 cells = assay: Confocal fluorescence nuclear staining, co-staining with Hoechst 33258; type: cell-based; settings: TC 5 μM
HEK293 cells [10] = assay: Nuclear staining with cytoplasmic marker α-tubulin; type: cell-based; settings: TC 5 μM
DNA = assay: Comparison of DNA dyes: sequence selectivity and fluorescence of free/DNA bound dye; type: binding
[11] = molecular target: α-Synuclein (α-Syn) aggregates (Homo sapiens, UniProt P37840); assay: Selectivity: fluorescence with α-synuclein aggregates; type: binding; settings: α-Syn aggregates 20 μM
(D2)mix [12] = assay: Agarose gel electrophoresis staining of dsDNA band; type: binding; settings: 3% agarose gel, about 0.6 μg dsDNA, UV-illumination
[13] = Absorption, emission and quantum yield of probes without Aβ42 aggregates; type: physicochemical
(GC)10 [14] = assay: Thermal denaturation (UV-melting) of dsDNA with probe TC; type: binding
HEK293 cells [15] = assay: MTT cytotoxicity assay; type: cell-based
Method: 10,000 HEK293 cells are seeded in 96-well plate and cultured for about 12 hours. […] Water is used as a control. About 20 μL of MTT (about 5 mg/mL) is added in each well, incubated for about 3 hours at about 37° C. and about 100 μL of DMSO is added. Readings are taken at about 570 nm in ELISA reader (VERSA Max microplate reader, Molecular Devices). The data is normalized with control and plotted with mean and standard error.

(AT)20 [16] = assay: Fluorescence response / quantum yield of probes with dsDNA (AT)20; type: binding
(D1)mix [17] = assay: Fluorescence response / quantum yield of probes with dsDNA (D1)mix; type: binding
(GC)10 [18] = assay: Fluorescence response / quantum yield of probes with dsDNA (GC)10; type: binding
Aβ42 aggregates [19] = molecular target: T2, Aβ42 aggregates; assay: Binding saturation assay (fluorescence) for binding constant
cells = assay: Comparison of DNA dyes: cell permeability; type: cell-based; settings: Table 3, probe of the disclosure
(GC)10 [20] = assay: Agarose gel electrophoresis staining of dsDNA band; type: binding; settings: 3% agarose gel, about 0.6 μg dsDNA, UV-illumination
(D2)mix [21] = assay: Thermal denaturation (UV-melting) of dsDNA with probe TC; type: binding
[22] = Table 3, probe of the disclosure
[23] = Tris-HCl buffer (100 mM, pH 7.4)
[24] = increasing concentrations of TC (1 μM to 20 μM), FIG. 10

T2 sequence (P05067 672-713 limits assumed): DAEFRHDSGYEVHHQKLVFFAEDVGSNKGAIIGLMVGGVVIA
Sequence of Aβ42 fibrillar aggregates (P05067 672-713 limits assumed): as above
T1 sequence (P10997 34-70 limits assumed): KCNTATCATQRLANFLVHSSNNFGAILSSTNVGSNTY
Sequence of ThT/Aβ42 aggregate complex (P05067 672-713 limits assumed, one chain of several): as the sequence (P05067 672-713 limits assumed) above

CCN(CC)c1ccc2cc(/C=C/c3sc4ccccc4[n+]3C)c(=O)oc2c1 [TC, (E)-3-(2-(N-methyl-benzo[d]thiazol-2-yl)vinyl)-7-(diethylamino)-2H-chromen-2-one]
Tm(DNA + TC) ((AT)10): 25.6 °C | pH range in which colorimetric and emission properties with Aβ42 aggregates are unaffected / usable [1]: 3 to 8 and 2-8 | Tm(DNA + TC) ((D1)mix [2]): 61.6 °C | fluorescence enhancement with IAPP aggregates [3]: does not lead to significant fluorescence enhancements | Tm(DNA + TC) ((AT)20 [4]): 49.7 °C | displacement of ThT from ThT/Aβ42 aggregate complex [5]: effective displacement of ThT by TC | gel staining of (AT)20 band ((AT)20 [6]): strong fluorescence intensity | ΦF in Buffer ([7]; Tris-HCl buffer (100 mM, pH 7.4), absence of DNA): 0.03 | emission (fluorescence) maxima ([7]; Tris-HCl buffer, no DNA, very weak fluorescence): 641 nm | absorption maxima ([7]; probe 10 μM, Tris-HCl buffer, no DNA): 528 nm | staining of trophozoite stage parasites in red blood cells (Plasmodium falciparum): specifically binds to the parasite cells within the red blood cells; also recorded: accumulated specifically in the nucleus of the parasitized red blood cell | absorption maximum TC/fibril (Aβ42 aggregates [8]; Experiment): 595 nm | quantum yield upon binding with Aβ42 aggregates (Aβ42 aggregates [8]; TC 2 μM): 40% | persistence of fluorescence of stained Aβ42 aggregates (Aβ42 aggregates [8]; aging): retain red fluorescence even after 50 days of aging | emission maximum in presence of Aβ42 aggregates (Aβ42 aggregates [8]; probe 2 μM): 654 nm | fluorescence enhancement in presence of Aβ42 aggregates (Aβ42 aggregates [8]; probe 2 μM, PBS buffer): ~30 fold | emission behaviour in presence of ssDNA [9]: do not show significant changes in the emission behaviour | fluorescence response in presence of ct-DNA (calf-thymus DNA (ct-DNA)): strong fluorescence enhancement | nuclear staining of HeLa S3 cells (HeLa S3 cells): selective targeting to the cell nucleus | co-localization with cytoplasmic marker α-tubulin (HEK293 cells [10]): does not co-localize with cytoplasmic marker α-tubulin | Fluorescence maxima DNA bound dye (DNA; [22]): 610 nm | Fluorescence maxima free dye (DNA; [22]): 641 nm | Fluorescence qauntum yield (ΦF) DNA bound dye (DNA; Table 3, superscript b): 0.36^b | preferential binding affinity, AT-sites versus GC-sites (DNA; fluorescence studies with dsDNAs): towards AT-sites than GC-sites | fluorescence enhancement with α-Syn aggregates [11]: does not lead to significant fluorescence enhancements | gel staining of (D2)mix band ((D2)mix [12]): strong fluorescence intensity | absorption maximum TC/chloroform ([13]; Experiment): 561 nm | absorption maximum TC/water ([13]; Experiment): 537 nm | absorption maximum in absence of Aβ42 aggregates ([13]; PBS buffer (10 mM, pH 7.4)): 537 nm | emission maximum in absence of Aβ42 aggregates ([13]; PBS buffer, very weak fluorescence): 638 nm | Tm(DNA + TC) ((GC)10 [14]): 60.3 °C | cytotoxicity, dose dependent MTT (HEK293 cells [15]; HEK293 cells, 2.5, 5 and 7.5 μM, about 30 minutes): non-toxic | viable cells (HEK293 cells [15]; HEK293 cells, about 5 μM TC, about 24 hours): about 64% | fluorescence enhancement in presence of (AT)20 ((AT)20 [16]; TC 10 μM, DNA 0 to 12 μM): ~16 fold | ΦF with (AT)20 ((AT)20 [16]; [23]): 0.36 | comparative fluorescence response in presence of (AT)20 ((AT)20 [16]; dye 10 μM, Tris-HCl buffer): excellent fluorescence marker | probe concentration at which fluorescence reaches saturation ((AT)20 [16]; fixed dsDNA 12 μM): 18 to 22 µM | fluorescence enhancement in presence of (AT)20 ((AT)20 [16]; [24]): ~16 fold | fluorescence enhancement in presence of (D1)mix ((D1)mix [17]; TC 10 μM, DNA 0 to 12 μM): ~6 fold | ΦF with (D1)mix ((D1)mix [17]; [23]): 0.11 | fluorescence enhancement in presence of (D1)mix ((D1)mix [17]; [24]): ~6 fold | ΦF with (GC)10 ((GC)10 [18]; [23]): 0.04 | fluorescence change in presence of (GC)10 ((GC)10 [18]; probe 10 μM): does not show such fluorescence enhancement | association constant Ka (Aβ42 aggregates [19]; 2 μM of Aβ42 aggregates): 1.72e+07 M⁻¹ | Kd (Aβ42 aggregates [19]; fluorescence saturation curve, Aβ42 aggregates 10 μM (QC) or 2 μM (TC), read-out: dissociation constant Kd): 58 ± 1.2 nM | Cell permeability (cells): Permeable | gel staining of (GC)10 band ((GC)10 [20]): not stained | Tm(DNA + TC) ((D2)mix [21]): 73.5 °C | ΔTm ((D2)mix [21]; TC bound vs unbound): 1.6 °C
